Assay results taken from patent US6727277B1, “Compounds affecting cholesterol absorption” (Kansas State University Research Foundation, priority 2002, dated 2004).

Key:
[1] = system: lymphatic absorption of cholesterol; experiment: Lymphatic absorption of 14C-cholesterol in lymph-cannulated rats infused with lipid emulsion; assay type: in vivo, rat
Description: (§1) Ten male Sprague-Dawley rats (Harlan Sprague Dawley, Inc., Indianapolis, Ind.) weighing 274.3±7.8 grams were housed individually in plastic cages in an environmentally controlled room of illumination (12:12-h light/dark cycle with the dark period from 0330 to 1530), humidity (60-70%), and temperature (22-25° C.) throughout the study. Rats had free access to deionized water and a nutritionally adequate diet (Table 1) containing soybean oil as the fat source and egg white as the protein source. The diet was formulated according to AIN-93G recommendations (In: Trace Elements in Laboratory Rodents (Watson, R. R., ed.), pp. 3-37. CRC Press, Boca Raton, Fla.). Animals were cared for in an animal care facility accredited by the American Association for the Accreditation of Laboratory Animal Care. Rats were maintained in accordance with the policies and guidelines for animal care and use procedures of the Kansas State University Institutional Animal Care and Use Committee.
At 6 wk, rats were starved overnight for 17 h but allowed water ad libitum prior to the surgical placement of a lymph cannula and duodenal infusion catheter. The mesenteric lymph duct was cannulated as described in Koo et al., J. Nutr. 131: 717-722 (2001). Briefly, while rats were under anesthesia (2.0% halothane in 2.0 L O2/min delivered via a halothane vaporizer), a midline abdominal incision was made. […] The cannula was fixed in place with ethyl cyanoacrylate glue (Elmer's Products, Columbus, Ohio) and externalized through the right flank. An indwelling infusion catheter (Silastic® laboratory tubing, i.d. 1.0 mm, o.d. 2.2 mm; Dow Coming, Midland, Mich.) was introduced via the gastric fundus into the upper duodenum and secured in place with a purse-string suture (4-0 Silk, Ethicon, Somerville, N.J.) around the fundic incision. The infusion catheter was exteriorized alongside the lymph cannula. After the abdominal incision was closed, the rats were placed in restraining cages and housed in a recovery chamber at 30° C. for postoperative recovery for 22-24 h. During the recovery period, rats were infused continuously with glucose in phosphate buffered saline (PBS) (in mmol/L: 277 glucose, 6.75 Na2HPO4, 16.5 NaH2PO4, 115 NaCl, and 5 KCl; pH 6.7) v infusion catheter at 3.0 mL/h by a syringe pump (Harvard Apparatus, Model 935, South Natick, Mass.) to ensure adequate hydration and nutritional status of the animals.
After postoperative recovery, each rat was infused with a lipid emulsion at 3 mL/h for 8 h via the duodenal catheter in subdued light. The lipid emulsion consisted of 451.8 μmol triolein (95%, Sigma Chemical, St. Louis, Mo.), 33.3 kBq [4-^14C]-cholesterol (^14C-CH; specific activity, 1.85 GBq/mmol, American Radiolabeled Chemicals, St. Louis, Mo.), 20.7 μmol cholesterol, 3.1 μmol α-tocopherol (all-rac-dl-α-tocopherol, 97%, Aldrich Chemical, Milwaukee, Wis.) as an antioxidant, and 396.0 μmol sodium taurocholate (Sigma Chemical, St. Louis, Mo.) in 24 mL of PBS buffer, pH 6.5. For half of the rats, the lipid emulsion contained 114.9 μmol compound 1 (41.9 mg). Lipid emulsion was prepared under a gentle N2 stream and subdued light for 55 min using a microprocessor-controlled ultrasonicator equipped with a microtip (XL-2020 Ultrasonic Liquid Processor, Misonix, Farmingdale, N.Y.).
(§2) During the duodenal infusion of lipid emulsion, lymph samples were collected hourly in preweighed ice-chilled centrifuge tubes containing 4 mg Na2-EDTA and 30 μg n-propyl gallate (Sigma Chemical, St. Louis, Mo.) as antioxidants. A portion of each lymph sample (100 μL) was mixed with scintillation liquid (ScintiVerse; Fisher Scientific, Fair Lawn, N.J.) and counted by scintillation spectrometry (Beckman LS-6500; Beckman Instruments, Fullerton, Calif.). The total ^14C-radioactivity appearing in hourly lymph volume (the hourly rates of ^14C-CH absorption) was expressed as a percentage of the total radioactivity infused (% dose). All samples were ice chilled and handled in subdued light. […]

[2] = system: lymphatic absorption of oleic acid; experiment: Lymphatic absorption of oleic acid (triolein) in lymph-cannulated rats, fatty acid analysis of lymph; assay type: in vivo, rat
Description: as §1, with “Animals were cared for in an animal care facility accredited by the American Association for the Accreditation of Laboratory Animal Care. Rats were maintained in accordance with the policies and guidelines for animal care and use procedures of the Kansas State University Institutional Animal Care and Use Committee.” left out
as §2, with “dose).” for “dose). All samples were ice chilled and handled in subdued light.”

[3] = system: Sprague-Dawley rats; experiment: Observation of behaviour and visual examination of organs of infused rats; assay type: in vivo, rat
Text: Rats were sacrificed at the day end of the infusion, and the intestine and other organs were dissected and visually examined.

[4] = system: cholesterol ester transfer protein (CETP); experiment: CETP activity, crude CETP preparation derived from hamster plasma; assay type: biochemical; conditions: in vitro
Description: The inhibitory effect of compound 1 on the activity of cholesterol ester transfer protein (CETP) was measured, using a crude CETP preparation derived from hamster plasma.

[5] = target: T1, cholesterol ester transfer protein (CETP) (Homo sapiens, UniProt P11597); experiment: Inhibition of CETP, purified CETP preparation; assay type: biochemical; conditions: FIG. 3, FIG. 4
T1 sequence (P11597 18-493): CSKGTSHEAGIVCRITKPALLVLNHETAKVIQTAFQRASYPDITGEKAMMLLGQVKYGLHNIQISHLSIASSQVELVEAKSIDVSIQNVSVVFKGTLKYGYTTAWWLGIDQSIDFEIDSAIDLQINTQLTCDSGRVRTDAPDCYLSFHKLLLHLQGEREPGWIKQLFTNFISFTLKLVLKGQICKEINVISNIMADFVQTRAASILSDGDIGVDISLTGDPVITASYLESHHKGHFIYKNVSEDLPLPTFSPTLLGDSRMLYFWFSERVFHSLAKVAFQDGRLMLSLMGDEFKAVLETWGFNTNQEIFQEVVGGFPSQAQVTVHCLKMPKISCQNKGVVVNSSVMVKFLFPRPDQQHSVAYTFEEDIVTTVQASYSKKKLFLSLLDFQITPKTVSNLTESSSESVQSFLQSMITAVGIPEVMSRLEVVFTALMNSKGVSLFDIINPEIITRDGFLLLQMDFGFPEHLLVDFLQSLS
Description: The effect of compound 24 on inhibition of CETP was tested using a purified CETP preparation. CETP was purified and assayed according to procedures described in Tomada, H.; Tabata, N.; Shinose, M.; Takahashi Y.; Woodruff, H. B.; Omura, S. J. Antibiotics, 52: 1101-1107 (1999).

[6] = rats, 8 h duodenal infusion of lipid emulsion with 114.9 μmol (41.9 mg) compound 1, means ± SD, n = 5

abnormalities of intestine and other organs, visual examination ([3]; rats sacrificed at end of infusion)	IC50 [5] [µM]	Structure (SMILES)	14C-cholesterol absorbed, cumulative ([1]; 1 h, rats, means ± SD, n = 5) [% dose]	14C-cholesterol absorbed, cumulative ([1]; 2 h, rats, means ± SD, n = 5) [% dose]	14C-cholesterol absorbed, cumulative ([1]; 3 h, rats, means ± SD, n = 5) [% dose]	14C-cholesterol absorbed, cumulative ([1]; 4 h, rats, means ± SD, n = 5) [% dose]	14C-cholesterol absorbed, cumulative ([1]; 5 h, rats, means ± SD, n = 5) [% dose]	14C-cholesterol absorbed, cumulative ([1]; 6 h, rats, means ± SD, n = 5) [% dose]	14C-cholesterol absorbed, cumulative ([1]; 7 h, rats, means ± SD, n = 5) [% dose]	14C-cholesterol absorbed, cumulative ([1]; 8 h, rats, means ± SD, n = 5) [% dose]	percent cholesterol absorption ([1]; after 8 hours of treatment, 41.9 mg of compound 1, control 37.69%) [%]	total cholesterol absorption compared to control rats ([1]; rats infused for eight hours)	14C-CH absorption [1, 6] [% dose/8 h]	absorption of triolein compared to control rats ([2]; rats infused for eight hours)	Oleic acid absorbed in lymph [2, 6] [μmol/8 h]	gross motor or behavioral abnormalities ([3]; rats, 8 h infusion)	dose above which HDL total cholesterol, HDL free cholesterol and HDL cholesterol ester increased [4]
No abnormalities were found		CC1(C)CCC[C@]2(C)C3=Cc4c(cc(O)c(O)c4Cl)O[C@]3(C)CC[C@@H]12 [Compound 1, (4aS,6aR,12bS)-2H-11-Chloro-1,3,4,4a,5,6,6a,12b-octahydro-4,4,6a,12b-tetramethyl-benzo[a]xanthene-9,10-diol]	0.12 ± 0.04	1.22 ± 0.25	2.70 ± 0.42	4.18 ± 0.92	5.68 ± 1.37	7.32 ± 1.78	9.13 ± 2.41	10.95 ± 3.29	10.95	significantly less	10.95 ± 3.29	significantly less	253 ± 79	no gross motor or behavioral abnormalities	exceeded 250 μM
	31	CC1(C)CCC[C@]2(C)C3=CC4=C(Cl)C(=O)C(=O)C=C4O[C@]3(C)CC[C@@H]12 [Compound 24, (4aS,6aR,12aR,12bS)-2H-11-Chloro-1,3,4,4a,5,6,6a,9,10,12b-decahydro-4,4,6a,12b-tetramethyl-benzo[a]xanthene-9,10-dione]															
	~22	C=Cc1ccc(OC(=O)c2ccc(O)c(N=O)c2)cc1.C=Cc1ccc(OC(=O)c2ccc(O)c(N=O)c2)cc1.C=Cc1ccc(OC(=O)c2ccc(O)c(N=O)c2)cc1.[Fe+2] [Ferroverdin A, reference compound]															
